Experimental findings from patent US10894788B2, “Inhibitors of cyclin-dependent kinases” (Kinnate Biopharma Inc., priority 2018, dated 2021) are described below.

The test deals with CDK12 (Homo sapiens (Human), UniProt Q9NYV4). Nature of the test: Radiometric protein kinase assay (33PanQinase Activity Assay), Assay Condition B (thiol-free conditions). The test is classed as biochemical. The note with it: thiol-free conditions (1 mM TCEP, glutathione removed). As to the method:
Example 2—Assay Condition B (Thiol-Free Conditions)
The IC50 profile of compounds was determined using one protein kinase in a customized, thiol free assay. […] Prior to testing, the 1×10^−03 M stock solutions in column 2 of the master plates were subjected to a serial, semi-logarithmic dilution using 100% DMSO as a solvent. […] Column 1 and 7 were filled with 100% DMSO as controls. Subsequently, 2×10 microliter from each well of the serial diluted copy plates were aliquoted with a 96 channel pipettor into two identical sets of “compound dilution plates”. All plates were barcoded for automated identification and tracking purposes. […] All compounds were stored as powder until being solubilized in DMSO. Solubilized compounds were stored as 1×10^−02 M/100% DMSO stock solutions. Prior to the assay process, 90 microliters of H2O were added to each well of a set of compound dilution plates. To minimize potential precipitation, the H2O was added to each plate only a few minutes before the transfer of the compound solutions into the assay plates. Each plate was shaken thoroughly, resulting in compound dilution plates with a final of 10% DMSO. For each assay, 5 microliters of solution from each well of the compound dilution plates/10% DMSO were transferred into the assay plate. The final volume of the assay was 50 μl. All compounds were tested at 10 final assay concentrations in the range from 1×10^−05 M to 3×10^−10 M, in singlicate. The final DMSO concentration in the reaction cocktails was 1% in all cases. A radiometric protein kinase assay (33PanQinase® Activity Assay) was used for measuring the kinase activity of the protein kinase. All kinase assays were performed in 96-well FlashPlates™ from PerkinElmer (Boston, Mass., USA) in a 50 microliter reaction volume. The reaction cocktail was pipetted in four steps in the following order: 20 microliter of assay buffer (standard buffer)·5 microliter of ATP solution (in H2O)·5 microliter of test compound (in 10% DMSO)·20 microliter enzyme/substrate mix. […] For all experiments labeled as “Thiol-free”, all glutathione was exchanged from protein preparations so as to be removed from the assay and final buffer conditions contained no thiol-containing reagents. This was done so there would be no interference with the key cysteines in the proteins of interest.
For data analysis, the median value of the counts in column 1 (n=8) of each assay plate was defined as “low control”. This value reflects unspecific binding of radioactivity to the plate in the absence of a protein kinase but in the presence of the substrate. The median value of the counts in column 7 of each assay plate (n=8) was taken as the “high control”, i.e. full activity in the absence of any inhibitor. The difference between high and low control was taken as 100% activity. As part of the data evaluation the low control value from a particular plate was subtracted from the high control value as well as from all 80 “compound values” of the corresponding plate. The residual activity (in %) for each well of a particular plate was calculated by using the following formula: Res. Activity (%)=100×[(cpm of compound−low control)/(high control−low control)]
The residual activities for each concentration and the compound IC50 values were calculated using Quattro Workflow V3.1.1 (Quattro Research GmbH, Munich, Germany; www.quattro-research.com). […] The fitting method used was a least-squares fit. As a parameter for assay quality, the Z′-factor (Zhang et al., J. Biomol. Screen. 2: 67-73, 1999) for the low and high controls of each assay plate (n=8) was used. ProQinase's criterion for repetition of an assay plate is a Z′-factor below 0.4 (Iversen et al., J. Biomol. Screen. 3: 247-252, 2006).

CDK12, sequence (Q9NYV4 whole entry): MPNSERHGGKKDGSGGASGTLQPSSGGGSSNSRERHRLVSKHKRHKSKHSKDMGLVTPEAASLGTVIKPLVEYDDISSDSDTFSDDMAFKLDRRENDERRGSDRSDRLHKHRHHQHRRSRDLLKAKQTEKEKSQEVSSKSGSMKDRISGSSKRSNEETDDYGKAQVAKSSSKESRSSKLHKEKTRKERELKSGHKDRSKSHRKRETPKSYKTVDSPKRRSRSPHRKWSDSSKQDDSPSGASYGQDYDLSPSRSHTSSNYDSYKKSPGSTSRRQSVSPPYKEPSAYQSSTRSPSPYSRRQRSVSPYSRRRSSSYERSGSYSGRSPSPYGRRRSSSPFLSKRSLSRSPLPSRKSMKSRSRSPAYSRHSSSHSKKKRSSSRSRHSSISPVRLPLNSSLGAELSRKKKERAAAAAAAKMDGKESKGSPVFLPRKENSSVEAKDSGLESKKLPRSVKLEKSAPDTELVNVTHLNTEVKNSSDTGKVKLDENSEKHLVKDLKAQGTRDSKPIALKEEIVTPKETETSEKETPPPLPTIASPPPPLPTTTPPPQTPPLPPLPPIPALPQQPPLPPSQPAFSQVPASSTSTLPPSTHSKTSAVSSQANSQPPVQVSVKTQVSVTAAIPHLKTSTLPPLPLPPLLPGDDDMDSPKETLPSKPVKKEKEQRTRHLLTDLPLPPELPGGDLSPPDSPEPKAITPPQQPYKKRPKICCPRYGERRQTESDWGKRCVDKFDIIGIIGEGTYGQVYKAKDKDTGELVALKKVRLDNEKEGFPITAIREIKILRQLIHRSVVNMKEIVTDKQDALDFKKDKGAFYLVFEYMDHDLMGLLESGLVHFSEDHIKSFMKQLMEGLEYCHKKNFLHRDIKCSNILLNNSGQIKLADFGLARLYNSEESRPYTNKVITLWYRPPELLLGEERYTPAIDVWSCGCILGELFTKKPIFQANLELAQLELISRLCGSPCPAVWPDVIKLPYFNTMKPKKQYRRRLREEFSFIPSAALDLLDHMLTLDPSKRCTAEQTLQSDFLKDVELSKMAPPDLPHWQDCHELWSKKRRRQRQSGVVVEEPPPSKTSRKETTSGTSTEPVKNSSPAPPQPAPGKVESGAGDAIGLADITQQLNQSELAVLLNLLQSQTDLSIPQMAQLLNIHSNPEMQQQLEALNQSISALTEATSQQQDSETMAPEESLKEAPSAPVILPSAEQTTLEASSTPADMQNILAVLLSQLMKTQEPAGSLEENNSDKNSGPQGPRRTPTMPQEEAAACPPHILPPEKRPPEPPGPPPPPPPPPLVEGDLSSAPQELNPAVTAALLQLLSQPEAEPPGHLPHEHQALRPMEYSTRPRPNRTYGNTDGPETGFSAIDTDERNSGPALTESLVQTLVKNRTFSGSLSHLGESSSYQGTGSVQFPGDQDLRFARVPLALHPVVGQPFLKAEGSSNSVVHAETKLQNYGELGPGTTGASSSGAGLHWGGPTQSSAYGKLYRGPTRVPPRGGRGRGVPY
CDK12, sequence (O75909 whole entry partner): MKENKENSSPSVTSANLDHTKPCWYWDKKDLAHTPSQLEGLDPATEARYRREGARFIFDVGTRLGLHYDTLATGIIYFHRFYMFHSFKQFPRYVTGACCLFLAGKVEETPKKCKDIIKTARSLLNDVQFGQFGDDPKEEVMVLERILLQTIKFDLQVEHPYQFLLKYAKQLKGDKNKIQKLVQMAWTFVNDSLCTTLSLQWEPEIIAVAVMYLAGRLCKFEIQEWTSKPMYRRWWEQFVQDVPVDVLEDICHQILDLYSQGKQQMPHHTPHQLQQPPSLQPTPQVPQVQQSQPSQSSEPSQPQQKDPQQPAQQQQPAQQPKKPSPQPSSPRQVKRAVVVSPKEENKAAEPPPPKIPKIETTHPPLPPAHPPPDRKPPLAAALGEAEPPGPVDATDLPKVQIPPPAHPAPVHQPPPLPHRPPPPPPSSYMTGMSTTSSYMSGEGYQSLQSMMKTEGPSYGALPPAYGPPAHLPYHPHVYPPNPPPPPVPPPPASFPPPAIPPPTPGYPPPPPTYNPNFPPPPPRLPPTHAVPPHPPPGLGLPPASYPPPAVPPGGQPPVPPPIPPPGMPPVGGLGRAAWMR

For orientation: IC50 means the midpoint of a concentration-inhibition curve. The compound `C=CC(=O)Nc1ccc(C(=O)N2CC[C@@H](Nc3ncc(Cl)cn3)C2)c(C)c1` [Example 32, (R)—N-(4-(3-((5-chloropyrimidin-2-yl)amino)pyrrolidine-1-carbonyl)-3-methylphenyl)acrylamide] came in with an IC50 of 100 to 1000 nM. Under `C=CC(=O)Nc1c(C)cc(C(=O)N2CC[C@@H](Nc3ncc(Cl)cn3)C2)cc1C` [Example 33, (R)—N-(4-(3-((5-chloropyrimidin-2-yl)amino)pyrrolidine-1-carbonyl)-2,6-dimethylphenyl)acrylamide] stands 1000 to 10000 nM; under `C=CC(=O)N1CCOc2cc(C(=O)N3CC[C@@H](Nc4ncc(Cl)cn4)C3)ccc21` [Example 34, (R)-1-(7-(3-((5-chloropyrimidin-2-yl)amino)pyrrolidine-1-carbonyl)-2H-benzo[b][1,4]oxazin-4(3H)-yl)prop-2-en-1-one], 100 to 1000 nM; under `C=CC(=O)Nc1ccc(C(=O)N2CCC[C@@H](Nc3nccc(-c4ccnn4C)n3)C2)cc1` [Example 35, (R)—N-(4-(3-((4-(1-methyl-1H-pyrazol-5-yl)pyrimidin-2-yl)amino)piperidine-1-carbonyl)phenyl)acrylamide], 30000 to 100000 nM. Under `C=CC(=O)Nc1ccc(C(=O)N2CCC[C@@H](Nc3nccc(N4CCOCC4)n3)C2)cc1` [Example 36, (R)—N-(4-(3-((4-morpholinopyrimidin-2-yl)amino)piperidine-1-carbonyl)phenyl)acrylamide] stands 30000 to 100000 nM; under `C=CC(=O)Nc1ccc(C(=O)N2CCC[C@@H](Nc3nccc(OC)n3)C2)cc1` [Example 37, (R)—N-(4-(3-((4-methoxypyrimidin-2-yl)amino)piperidine-1-carbonyl)phenyl)acrylamide], 1000 to 10000 nM. Under `C=CC(=O)Nc1ccc(C(=O)N2CCC[C@@H](Nc3cnc(Cl)cn3)C2)cc1` [Example 38, (R)—N-(4-(3-((5-chloropyrazin-2-yl)amino)piperidine-1-carbonyl)phenyl)acrylamide] stands 10000 to 30000 nM.

Take `C=CC(=O)Nc1ccc(C(=O)N2CCC[C@@H](Nc3nccc(-c4cnn(C)c4)n3)C2)cc1` [Example 39, (R)—N-(4-(3-((4-(1-methyl-1H-pyrazol-4-yl)pyrimidin-2-yl)amino)piperidine-1-carbonyl)phenyl)acrylamide]: the IC50 fell in the range of 30000 to 100000 nM.

`C=CC(=O)Nc1ccc(C(=O)N2CCC[C@@H](Nc3nccc(OC4CCCC4)n3)C2)cc1` [Example 40, (R)—N-(4-(3-((4-(cyclopentyloxy)pyrimidin-2-yl)amino)piperidine-1-carbonyl)phenyl)acrylamide] registered an IC50 of 10000 to 30000 nM. Under `CCC(=O)Nc1ccc(C(=O)N2CCC[C@@H](Nc3nccc(-c4cn[nH]c4)n3)C2)cc1` [Example 41, (R)—N-(4-(3-((4-(1H-pyrazol-4-yl)pyrimidin-2-yl)amino)piperidine-1-carbonyl)phenyl)propionamide] stands 30000 to 100000 nM; under `CCC(=O)Nc1ccc(C(=O)N2CCC[C@@H](Nc3nccc(N4CCOCC4)n3)C2)cc1` [Example 42, (R)—N-(4-(3-((4-morpholinopyrimidin-2-yl)amino)piperidine-1-carbonyl)phenyl)propionamide], 30000 to 100000 nM; under `CCC(=O)Nc1ccc(C(=O)N2CC[C@@H](Nc3nccc(-c4cn[nH]c4)n3)C2)cc1` [Example 43], 1000 to 10000 nM. Under `C=CC(=O)Nc1ccc(C(=O)N2CC[C@@H](Nc3nccc(-c4cn[nH]c4)n3)C2)cc1` [Example 44, (R)—N-(4-(3-((4-(1H-pyrazol-4-yl)pyrimidin-2-yl)amino)pyrrolidine-1-carbonyl)phenyl)acrylamide] stands 100 to 1000 nM; under `C=CC(=O)N1CCOc2cc(C(=O)N3CC[C@@H](Nc4ncc(Cl)cn4)C3)ccc21` [Example 51, (R)-1-(7-(3-((5-chloropyrimidin-2-yl)amino)pyrrolidine-1-carbonyl)-2H-benzo[b][1,4]oxazin-4(3H)-yl)prop-2-en-1-one], 100 to 1000 nM. Under `C=CC(=O)Nc1ccc(C(=O)N2CC[C@@H](Nc3ncc(Cl)c(OC4CC4)n3)C2)cc1` [Example 56, (R)—N-(4-(3-((5-chloro-4-cyclopropoxypyrimidin-2-yl)amino)pyrrolidine-1-carbonyl)phenyl)acrylamide] stands below 100 nM; under `C=CC(=O)Nc1ccc(C(=O)N2CC[C@@H](Nc3ncc(C)cn3)C2)cc1` [Example 57, (R)—N-(4-(3-((5-methylpyrimidin-2-yl)amino)pyrrolidine-1-carbonyl)phenyl)acrylamide], 100 to 1000 nM. Regarding `C=CC(=O)Nc1ccc(C(=O)N2CC[C@@H](Nc3cnc(C(F)(F)F)cn3)C2)cc1` [Example 60, (R)—N-(4-(3-((5-(trifluoromethyl)pyrazin-2-yl)amino)pyrrolidine-1-carbonyl)phenyl)acrylamide], the IC50 lay in the range of 100 to 1000 nM.

In turn, `C=CC(=O)Nc1ccc(C(=O)N2CC[C@@H](Nc3cnc(C)cn3)C2)cc1` [Example 61, (R)—N-(4-(3-((5-methylpyrazin-2-yl)amino)pyrrolidine-1-carbonyl)phenyl)acrylamide] had an IC50 of 1000 to 10000 nM. The value for `C=CC(=O)N1CCOc2cc(C(=O)N3CC[C@@H](Nc4ncc(Cl)c(OC)n4)C3)ccc21` [Example 63, (R)-1-(7-(3-((5-chloro-4-methoxypyrimidin-2-yl)amino)pyrrolidine-1-carbonyl)-2H-benzo[b][1,4]oxazin-4(3H)-yl)prop-2-en-1-one] was 100 to 1000 nM; that for `C=CC(=O)Nc1ccc(C(=O)N2CC[C@@H](Nc3ccc(Cl)cn3)C2)cc1` [Example 64, (R)—N-(4-(3-((5-chloropyridin-2-yl)amino)pyrrolidine-1-carbonyl)phenyl)acrylamide] was 100 to 1000 nM; that for `C=CC(=O)N1CCCc2cc(C(=O)N3CC[C@@H](Nc4ncc(Cl)c(OC)n4)C3)ccc21` [Example 65, (R)-1-(6-(3-((5-chloro-4-methoxypyrimidin-2-yl)amino)pyrrolidine-1-carbonyl)-3,4-dihydroquinolin-1(2H)-yl)prop-2-en-1-one] was below 100 nM. The value for `C=CC(=O)Nc1ccc(C(=O)N2CC[C@@H](Nc3ncc(Cl)c(OC)n3)C2)cc1N1CCOCC1` [Example 68, (R)—N-(4-(3-((5-chloro-4-methoxypyrimidin-2-yl)amino)pyrrolidine-1-carbonyl)-2-morpholinophenyl)acrylamide] was below 100 nM.

In the case of `C=CC(=O)Nc1ccc(C(=O)N2CC[C@@H](Nc3ncc(Cl)cn3)C2)cc1-c1cnn(C)c1` [Example 69, (R)—N-(4-(3-((5-chloropyrimidin-2-yl)amino)pyrrolidine-1-carbonyl)-2-(1-methyl-1H-pyrazol-4-yl)phenyl)acrylamide], the IC50 was 100 to 1000 nM. The value for `C=CC(=O)Nc1ccc(C(=O)N2CC[C@@H](Nc3ncc(F)c(OC4CC4)n3)C2)cc1` [Example 71, (R)—N-(4-(3-((4-cyclopropoxy-5-fluoropyrimidin-2-yl)amino)pyrrolidine-1-carbonyl)phenyl)acrylamide] was 100 to 1000 nM; that for `C=CC(=O)Nc1ncc(C(=O)N2CC[C@@H](Nc3ncc(Cl)c(OC)n3)C2)s1` [Example 73, (R)—N-(5-(3-((5-chloro-4-methoxypyrimidin-2-yl)amino)pyrrolidine-1-carbonyl)thiazol-2-yl)acrylamide] was 100 to 1000 nM. The value for `C=CC(=O)Nc1ccc(C(=O)N2CC[C@@H](Nc3ncc(Cl)c(OC)n3)C2)cc1N1CCCCC1` [Example 74, (R)—N-(4-(3-((5-chloro-4-methoxypyrimidin-2-yl)amino)pyrrolidine-1-carbonyl)-2-(piperidin-1-yl)phenyl)acrylamide] was below 100 nM; that for `C=CC(=O)Nc1ccc(C(=O)N2CC[C@@H](Nc3ccc(C)cn3)C2)cc1` [Example 75, (R)—N-(4-(3-((5-methylpyridin-2-yl)amino)pyrrolidine-1-carbonyl)phenyl)acrylamide] was 1000 to 10000 nM.
